Source: the supplement of paper PMC10307832

Key:
Test in all cases: relative viability (nuclei count vs DMSO), 5 days (fraction); higher = more cells survive
[1] = compound: C1CC1C(=O)NC2=NNC3=C2C=CC(=C3)C4=CC(=CC=C4)C(=O)NC5CC5 [XMD13-2] + CC(=O)c1c(C)c2cnc(Nc3ccc(N4CCNCC4)cn3)nc2n(C2CCCC2)c1=O [Palbociclib] (partner 0.5 µM)
Procedure, shortened: (§1)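 A single step with final 0.05% Triton X-100, 1% formaldehyde and 1 ug/ml Hoechst fixed the cells and stained nuclei 5 days after treatment. Lung cancer cell lines in 1536-well plates had been treated by pin tool the day after seeding with one drug alone or a fixed anchor-drug dose plus five library-drug doses (not always all listed) in √10 steps, and nuclei were counted on 4× images. Relative viability is the ratio of nuclei in treated wells to nuclei in vehicle wells, taken as the median of duplicate plates.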

[2] = compound: C1CC1C(=O)NC2=NNC3=C2C=CC(=C3)C4=CC(=CC=C4)C(=O)NC5CC5 [XMD13-2] + N=C(N)NC(=N)NCCc1ccccc1 [Phenformin] (partner 250 µM)
Procedure, shortened: as §1

[3] = compound: Cc1ccc(C(=O)Nc2cccc(C(F)(F)F)c2)cc1Nc1cncc(C(N)=O)c1 [ALW-II-49-7] + CC(=O)c1c(C)c2cnc(Nc3ccc(N4CCNCC4)cn3)nc2n(C2CCCC2)c1=O [Palbociclib] (partner 0.5 µM)
Procedure, shortened: as §1

[4] = compound: Cc1nc(Nc2ncc(C(=O)Nc3c(C)cccc3Cl)s2)cc(N2CCN(CCO)CC2)n1 [Dasatinib] + Nc1ncn([C@H]2C[C@H](O)[C@@H](CO)O2)c(=O)n1 [Decitabine] (partner 2 µM)
Procedure, shortened: as §1

| Cell Line | relative viability ([1]; first compound 0.05 µM) | relative viability ([1]; first compound 0.1581 µM) | relative viability ([1]; first compound 0.5 µM) | relative viability ([1]; first compound 5 µM) | relative viability ([2]; first compound 0.05 µM) | relative viability ([2]; first compound 0.1581 µM) | relative viability ([2]; first compound 0.5 µM) | relative viability ([2]; first compound 1.581 µM) | relative viability ([2]; first compound 5 µM) | relative viability ([3]; first compound 0.08 µM) | relative viability ([3]; first compound 0.253 µM) | relative viability ([3]; first compound 0.8 µM) | relative viability ([3]; first compound 2.53 µM) | relative viability ([3]; first compound 8 µM) | relative viability ([4]; first compound 0.005 µM) | relative viability ([4]; first compound 0.01581 µM) | relative viability ([4]; first compound 0.05 µM) | relative viability ([4]; first compound 0.1581 µM) | relative viability ([4]; first compound 0.5 µM) | relative viability ([1]; first compound 1.581 µM) |
| --- | --- | --- | --- | --- | --- | --- | --- | --- | --- | --- | --- | --- | --- | --- | --- | --- | --- | --- | --- | --- |
| NCI-H322M | 0.494 | 0.491 | 0.498 | 0.49 | 0.858 | 0.84 | 0.774 | 0.782 | 0.905 | 0.439 | 0.453 | 0.486 | 0.534 | 0.505 | 0.755 | 0.589 | 0.518 | 0.45 | 0.253 |  |
| NCI-H358 | 0.139 | 0.121 | 0.133 | 0.129 | 0.358 | 0.323 | 0.336 | 0.351 | 0.304 | 0.128 | 0.13 | 0.141 | 0.133 | 0.117 | 0.211 | 0.173 | 0.169 | 0.127 | 0.146 | 0.117 |
| NCI-H441 | 0.239 | 0.224 | 0.219 | 0.28 | 1.06 | 0.801 | 0.883 | 0.884 | 0.871 | 0.182 | 0.177 | 0.249 | 0.212 | 0.188 | 0.276 | 0.232 | 0.272 | 0.202 | 0.19 | 0.225 |
| NCI-H460 | 0.183 | 0.167 | 0.21 | 0.286 | 0.589 | 0.537 | 0.57 | 0.486 | 0.542 | 0.171 | 0.185 | 0.126 | 0.136 | 0.111 | 0.568 | 0.444 | 0.352 | 0.29 | 0.286 | 0.233 |
| NCI-H520 | 0.256 | 0.239 | 0.213 | 0.188 | 0.529 | 0.604 | 0.591 | 0.529 | 0.499 | 0.219 | 0.234 | 0.205 | 0.213 | 0.21 | 0.524 | 0.38 | 0.266 | 0.177 | 0.175 | 0.203 |
| NCI-H522 | 0.931 | 0.873 | 1.22 | 0.885 | 0.732 | 0.656 | 0.708 | 0.616 | 0.602 | 0.962 | 0.921 | 1.2 | 1.04 | 0.979 | 0.745 | 0.767 | 0.671 | 0.655 | 0.61 | 0.875 |
| NCI-H647 | 0.491 | 0.384 | 0.408 | 0.225 | 0.697 | 0.605 | 0.678 | 0.659 | 0.435 | 0.422 | 0.307 | 0.444 | 0.294 | 0.238 | 0.379 | 0.311 | 0.315 | 0.173 | 0.182 | 0.5 |
| NCI-H650 | 0.321 | 0.335 | 0.33 | 0.31 | 0.438 | 0.544 | 0.534 | 0.425 | 0.488 | 0.277 | 0.309 | 0.351 | 0.327 | 0.236 | 0.325 | 0.281 | 0.318 | 0.341 | 0.302 | 0.305 |
| NCI-H661 | 0.378 | 0.395 | 0.392 | 0.408 | 0.261 | 0.292 | 0.274 | 0.267 | 0.271 | 0.384 | 0.443 | 0.39 | 0.384 | 0.404 | 0.566 | 0.528 | 0.518 | 0.394 | 0.404 | 0.406 |
| NCI-H727 | 0.677 | 0.691 | 0.758 | 0.627 | 0.619 | 0.518 | 0.556 | 0.584 | 0.525 | 0.604 | 0.63 | 0.676 | 0.555 | 0.577 | 0.818 | 0.7 | 0.742 | 0.718 | 0.295 | 0.601 |
| NCI-H838 | 0.238 | 0.214 | 0.249 | 0.205 | 0.663 | 0.538 | 0.65 | 0.544 | 0.632 | 0.246 | 0.225 | 0.203 | 0.232 | 0.191 | 0.45 | 0.422 | 0.39 | 0.377 | 0.3 | 0.224 |
| NCI-H1355 | 0.442 | 0.365 | 0.42 | 0.425 | 0.5 | 0.451 | 0.465 | 0.462 | 0.517 | 0.372 | 0.428 | 0.376 | 0.4 | 0.436 | 0.355 | 0.319 | 0.354 | 0.343 | 0.272 | 0.398 |
| NCI-H1395 | 0.757 | 0.634 | 0.631 | 0.715 | 0.449 | 0.446 | 0.435 | 0.429 | 0.45 | 0.583 | 0.689 | 0.691 |  | 0.495 | 0.73 | 0.669 | 0.694 | 0.57 | 0.326 | 0.656 |
| NCI-H1437 | 0.297 | 0.299 | 0.335 | 0.255 | 0.297 | 0.305 | 0.299 | 0.311 | 0.341 | 0.288 | 0.318 | 0.286 | 0.34 | 0.315 | 0.599 | 0.576 | 0.642 | 0.499 | 0.49 | 0.327 |
| NCI-H1650 | 0.29 | 0.399 | 0.385 | 0.312 | 0.634 | 0.476 | 0.552 | 0.432 | 0.558 | 0.328 | 0.314 | 0.338 | 0.397 | 0.41 | 0.462 | 0.255 | 0.475 | 0.318 | 0.314 | 0.332 |
| NCI-H1651 | 0.543 | 0.507 | 0.508 | 0.503 | 0.382 | 0.323 | 0.392 | 0.37 | 0.343 | 0.522 | 0.476 | 0.49 | 0.439 | 0.444 | 0.629 | 0.507 | 0.558 | 0.585 | 0.473 | 0.527 |
